Experimental data published in ChEMBL document CHEMBL4052724, “Influence of the cellular environment on ligand binding kinetics at membrane-bound targets” (Bioorg Med Chem Lett, 2017).

Tests used:
[1] = biological target: T1, Type-1 angiotensin II receptor (Homo sapiens) (UniProt P30556); test: Antagonist activity at human AT1 receptor expressed in CHO cells assessed as reduction in angiotensin 2-induced inositol phosphate accumulation by measuring dissociation rate constant preincubated with cells followed by compound washout in presence of losartan and subsequent addition of angiotensin 2 for 5 mins; type: functional, cell-based
T1 sequence (whole entry): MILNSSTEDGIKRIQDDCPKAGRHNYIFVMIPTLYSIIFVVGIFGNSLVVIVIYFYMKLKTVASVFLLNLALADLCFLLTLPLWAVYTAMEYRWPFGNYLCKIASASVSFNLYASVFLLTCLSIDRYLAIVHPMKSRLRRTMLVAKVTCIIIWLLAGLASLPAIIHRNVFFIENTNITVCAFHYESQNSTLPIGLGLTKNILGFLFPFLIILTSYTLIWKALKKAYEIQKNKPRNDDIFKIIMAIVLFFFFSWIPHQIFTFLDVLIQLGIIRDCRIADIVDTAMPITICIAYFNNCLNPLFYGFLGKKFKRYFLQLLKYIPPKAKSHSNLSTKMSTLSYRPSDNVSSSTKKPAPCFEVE

[2] = biological target: T1, Type-1 angiotensin II receptor (Homo sapiens); test: Antagonist activity at human AT1 receptor expressed in CHO cells assessed as reduction in angiotensin 2-induced inositol phosphate accumulation by measuring dissociation rate constant preincubated with cells followed by compound washout and subsequent addition of angiotensin 2 for 5 mins; type: functional, cell-based
[3] = biological target: T1, Type-1 angiotensin II receptor (Homo sapiens); test: Displacement of [3H]-candesartan from human AT1 receptor expressed in CHO cells assessed as dissociation rate constant at 100 nM pre-incubated with cells followed by compound washout and subsequent addition of [3H]-candesartan up to 60 mins; type: cell-based
[4] = biological target: T1, Type-1 angiotensin II receptor (Homo sapiens); test: Binding affinity to human AT1 receptor expressed in CHO cells assessed as dissociation rate constant at 3 nM incubated for 60 mins followed by compound washout; type: cell-based
[5] = biological target: T1, Type-1 angiotensin II receptor (Homo sapiens); test: Binding affinity to human AT1 receptor expressed in CHO cells assessed as dissociation rate constant at 3 nM incubated for 60 mins followed by compound washout in presence of losartan; type: cell-based
[6] = biological target: T1, Type-1 angiotensin II receptor (Homo sapiens); test: Binding affinity to human AT1 receptor expressed in CHO cells assessed as dissociation rate constant at 3 nM incubated for 60 mins measured after isotopic dilution; type: cell-based
[7] = biological target: T1, Type-1 angiotensin II receptor (Homo sapiens); test: (§1) Antagonist activity at human AT1 receptor expressed in CHO cells assessed as reduction in angiotensin 2-induced inositol phosphate accumulation by measuring residence time constant preincubated with cells followed by compound washout and subsequent addition of angiotensin 2 for 5 mins; type: functional, cell-based
[8] = biological target: T1, Type-1 angiotensin II receptor (Homo sapiens); test: as §1, with “washout in presence of losartan” for “washout”; type: functional, cell-based
[9] = biological target: T1, Type-1 angiotensin II receptor (Homo sapiens); test: Displacement of [3H]-candesartan from human AT1 receptor expressed in CHO cells assessed as residence time at 100 nM pre-incubated with cells followed by compound washout and subsequent addition of [3H]-candesartan up to 60 mins; type: cell-based
[10] = biological target: T1, Type-1 angiotensin II receptor (Homo sapiens); test: Binding affinity to human AT1 receptor expressed in CHO cells assessed as residence time at 3 nM incubated for 60 mins followed by compound washout; type: cell-based
[11] = biological target: T1, Type-1 angiotensin II receptor (Homo sapiens); test: Binding affinity to human AT1 receptor expressed in CHO cells assessed as residence time at 3 nM incubated for 60 mins followed by compound washout in presence of losartan; type: cell-based
[12] = biological target: T1, Type-1 angiotensin II receptor (Homo sapiens); test: Binding affinity to human AT1 receptor expressed in CHO cells assessed as residence time at 3 nM incubated for 60 mins measured after isotopic dilution; type: cell-based
[13] = biological target: T1, Type-1 angiotensin II receptor (Homo sapiens); test: Binding affinity to human AT1 receptor expressed in CHO cells assessed as dissociation rate constant at 1.5 nM incubated for 60 mins followed by compound washout; type: cell-based
[14] = biological target: T1, Type-1 angiotensin II receptor (Homo sapiens); test: Binding affinity to human AT1 receptor expressed in CHO cells assessed as dissociation rate constant at 1.5 nM incubated for 60 mins followed by compound washout in presence of losartan; type: cell-based
[15] = biological target: T1, Type-1 angiotensin II receptor (Homo sapiens); test: Binding affinity to human AT1 receptor expressed in CHO cells assessed as dissociation rate constant at 1.5 nM incubated for 60 mins measured after isotopic dilution; type: cell-based
[16] = biological target: T1, Type-1 angiotensin II receptor (Homo sapiens); test: Binding affinity to human AT1 receptor expressed in CHO cells assessed as residence time at 1.5 nM incubated for 60 mins followed by compound washout; type: cell-based
[17] = biological target: T1, Type-1 angiotensin II receptor (Homo sapiens); test: Binding affinity to human AT1 receptor expressed in CHO cells assessed as residence time at 1.5 nM incubated for 60 mins followed by compound washout in presence of losartan; type: cell-based
[18] = biological target: T1, Type-1 angiotensin II receptor (Homo sapiens); test: Binding affinity to human AT1 receptor expressed in CHO cells assessed as residence time at 1.5 nM incubated for 60 mins measured after isotopic dilution; type: cell-based
[19] = biological target: T1, Type-1 angiotensin II receptor (Homo sapiens); test: Displacement of [3H]-candesartan from human AT1 receptor expressed in CHO cells assessed as dissociation rate constant at 1.5 nM pre-incubated with cells followed by compound washout and subsequent addition of [3H]-candesartan up to 60 mins; type: cell-based
[20] = biological target: T1, Type-1 angiotensin II receptor (Homo sapiens); test: Displacement of [3H]-candesartan from human AT1 receptor expressed in CHO cells assessed as residence time at 1.5 nM pre-incubated with cells followed by compound washout and subsequent addition of [3H]-candesartan up to 60 mins; type: cell-based

| K [1] | K [2] | K [3] | K [4] | K [5] | K [6] | TIME [7] | TIME [8] | TIME [9] | TIME [10] | TIME [11] | TIME [12] | K [13] | K [14] | K [15] | TIME [16] | TIME [17] | TIME [18] | K [19] | TIME [20] | SMILES |
| --- | --- | --- | --- | --- | --- | --- | --- | --- | --- | --- | --- | --- | --- | --- | --- | --- | --- | --- | --- | --- |
| 0.058 min⁻¹ | 0.039 min⁻¹ | 0.04 min⁻¹ | 0.128 min⁻¹ | 0.101 min⁻¹ | 0.104 min⁻¹ | 0.433 h | 0.283 h | 0.417 h | 0.15 h | 0.15 h | 0.167 h | – | – | – | – | – | – | – | – | CCCCC1=NC2(CCCC2)C(=O)N1Cc1ccc(-c2ccccc2-c2nnn[nH]2)cc1 |
| – | – | – | – | – | – | – | – | – | – | – | – | 0.028 min⁻¹ | 0.049 min⁻¹ | 0.041 min⁻¹ | 0.6 h | 0.333 h | 0.417 h | – | – | CCCCC(=O)N(Cc1ccc(-c2ccccc2-c2nn[nH]n2)cc1)[C@@H](C(=O)O)C(C)C |
| 0.003 min⁻¹ | 0.002 min⁻¹ | – | – | – | – | 7.57 h | 4.45 h | – | – | – | – | 0.001 min⁻¹ | 0.005 min⁻¹ | 0.006 min⁻¹ | 16.6 h | 3.62 h | 2.7 h | 0.004 min⁻¹ | 3.65 h | CCOc1nc2cccc(C(=O)O)c2n1Cc1ccc(-c2ccccc2-c2nnn[nH]2)cc1 |
| 0.021 min⁻¹ | 0.016 min⁻¹ | – | – | – | – | 1.05 h | 0.8 h | – | – | – | – | – | – | – | – | – | – | – | – | CCCCc1nc(Cl)c(C(=O)O)n1Cc1ccc(-c2ccccc2-c2nn[nH]n2)cc1 |
